These results are taken from ChEMBL document CHEMBL2346648, “A series of thiazole derivatives bearing thiazolidin-4-one as non-competitive ADAMTS-5 (aggrecanase-2) inhibitors” (Bioorg Med Chem Lett, 2013).

In test [1] the target is T1, A disintegrin and metalloproteinase with thrombospondin motifs 4 (Bos taurus) (UniProt Q9TT93).
T1 sequence (whole entry): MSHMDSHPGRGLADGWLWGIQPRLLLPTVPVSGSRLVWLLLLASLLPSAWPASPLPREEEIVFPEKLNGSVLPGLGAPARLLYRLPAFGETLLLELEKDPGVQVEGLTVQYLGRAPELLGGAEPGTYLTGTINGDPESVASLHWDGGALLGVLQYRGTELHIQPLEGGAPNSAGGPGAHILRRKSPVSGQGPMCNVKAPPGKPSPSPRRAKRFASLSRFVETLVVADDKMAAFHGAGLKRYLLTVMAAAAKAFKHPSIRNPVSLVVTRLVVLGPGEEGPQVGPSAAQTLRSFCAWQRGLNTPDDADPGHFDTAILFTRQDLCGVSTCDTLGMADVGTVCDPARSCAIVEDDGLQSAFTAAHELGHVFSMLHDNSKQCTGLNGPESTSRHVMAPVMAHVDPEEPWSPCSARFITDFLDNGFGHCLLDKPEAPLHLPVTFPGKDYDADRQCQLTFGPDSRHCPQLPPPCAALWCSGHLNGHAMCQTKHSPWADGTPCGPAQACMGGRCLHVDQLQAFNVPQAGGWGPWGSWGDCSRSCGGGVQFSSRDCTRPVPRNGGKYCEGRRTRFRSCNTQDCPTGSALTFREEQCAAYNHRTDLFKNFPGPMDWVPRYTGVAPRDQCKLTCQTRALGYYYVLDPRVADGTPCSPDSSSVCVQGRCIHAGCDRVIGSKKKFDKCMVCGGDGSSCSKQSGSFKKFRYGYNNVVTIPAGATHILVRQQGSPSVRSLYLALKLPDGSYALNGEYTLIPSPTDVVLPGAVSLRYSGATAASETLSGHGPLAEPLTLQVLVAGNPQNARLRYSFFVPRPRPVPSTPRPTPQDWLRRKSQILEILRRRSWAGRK
The note with it: 30 uM.
Description: Ex vivo inhibition of ADAMTS-4-mediated aggrecan degradation in IL-1-stimulated bovine cartilage explant at 30 uM

In test [2] the target is T2, A disintegrin and metalloproteinase with thrombospondin motifs 4 (Homo sapiens, UniProt O75173).
T2 sequence (O75173 whole entry): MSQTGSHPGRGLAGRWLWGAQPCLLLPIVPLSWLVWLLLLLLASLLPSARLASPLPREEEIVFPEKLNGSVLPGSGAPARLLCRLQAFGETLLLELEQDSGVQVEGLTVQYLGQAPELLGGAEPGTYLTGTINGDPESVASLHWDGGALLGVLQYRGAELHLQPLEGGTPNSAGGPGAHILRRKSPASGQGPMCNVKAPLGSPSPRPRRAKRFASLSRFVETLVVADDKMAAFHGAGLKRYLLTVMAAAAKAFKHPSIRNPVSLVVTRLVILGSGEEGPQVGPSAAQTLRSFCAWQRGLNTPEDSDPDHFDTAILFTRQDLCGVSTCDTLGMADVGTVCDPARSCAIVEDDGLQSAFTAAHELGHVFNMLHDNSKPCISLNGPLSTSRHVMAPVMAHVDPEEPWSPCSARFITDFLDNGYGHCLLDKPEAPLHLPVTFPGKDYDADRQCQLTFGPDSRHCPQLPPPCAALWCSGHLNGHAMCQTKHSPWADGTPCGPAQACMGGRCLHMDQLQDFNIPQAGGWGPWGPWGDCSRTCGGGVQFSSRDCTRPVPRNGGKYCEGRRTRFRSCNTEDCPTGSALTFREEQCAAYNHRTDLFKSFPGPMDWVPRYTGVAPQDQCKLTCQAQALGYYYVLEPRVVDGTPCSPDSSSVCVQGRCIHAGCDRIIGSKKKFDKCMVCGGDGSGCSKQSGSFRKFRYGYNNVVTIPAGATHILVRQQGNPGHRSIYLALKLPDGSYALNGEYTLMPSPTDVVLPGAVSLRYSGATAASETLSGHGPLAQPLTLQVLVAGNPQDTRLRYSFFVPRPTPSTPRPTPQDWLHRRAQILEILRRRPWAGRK
Briefly: Inhibition of ADAMTS-4 (unknown origin).

In test [3] the target is T3, A disintegrin and metalloproteinase with thrombospondin motifs 5 (Homo sapiens, UniProt Q9UNA0).
T3 sequence (Q9UNA0 whole entry): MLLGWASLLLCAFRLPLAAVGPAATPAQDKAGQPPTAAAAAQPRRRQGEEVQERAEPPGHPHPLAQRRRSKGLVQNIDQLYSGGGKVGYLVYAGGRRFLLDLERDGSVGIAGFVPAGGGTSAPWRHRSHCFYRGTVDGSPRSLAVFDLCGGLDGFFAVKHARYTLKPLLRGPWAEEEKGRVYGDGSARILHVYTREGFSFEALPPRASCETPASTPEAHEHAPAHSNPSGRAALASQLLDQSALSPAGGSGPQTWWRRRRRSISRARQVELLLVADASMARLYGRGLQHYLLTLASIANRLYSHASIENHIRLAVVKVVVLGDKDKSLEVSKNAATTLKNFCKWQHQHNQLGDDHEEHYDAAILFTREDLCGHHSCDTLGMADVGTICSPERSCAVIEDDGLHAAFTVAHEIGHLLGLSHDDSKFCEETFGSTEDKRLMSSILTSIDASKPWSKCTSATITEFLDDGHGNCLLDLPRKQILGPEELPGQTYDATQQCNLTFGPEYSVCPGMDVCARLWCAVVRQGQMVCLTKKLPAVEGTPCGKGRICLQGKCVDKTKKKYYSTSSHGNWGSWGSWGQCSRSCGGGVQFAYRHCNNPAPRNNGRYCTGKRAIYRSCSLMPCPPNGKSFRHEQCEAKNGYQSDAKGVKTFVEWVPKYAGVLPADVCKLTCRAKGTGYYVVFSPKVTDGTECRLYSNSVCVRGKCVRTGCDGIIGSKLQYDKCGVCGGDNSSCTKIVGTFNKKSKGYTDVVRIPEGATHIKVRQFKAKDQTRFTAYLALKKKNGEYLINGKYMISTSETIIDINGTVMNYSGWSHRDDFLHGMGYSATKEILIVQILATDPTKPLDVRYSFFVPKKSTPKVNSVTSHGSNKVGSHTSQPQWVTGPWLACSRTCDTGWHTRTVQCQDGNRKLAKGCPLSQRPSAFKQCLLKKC
Briefly: Inhibition of ADAMTS-5 (unknown origin).

The target of test [4] is T4, A disintegrin and metalloproteinase with thrombospondin motifs 5 (Bos taurus) (UniProt Q9TT92).
T4 sequence (whole entry): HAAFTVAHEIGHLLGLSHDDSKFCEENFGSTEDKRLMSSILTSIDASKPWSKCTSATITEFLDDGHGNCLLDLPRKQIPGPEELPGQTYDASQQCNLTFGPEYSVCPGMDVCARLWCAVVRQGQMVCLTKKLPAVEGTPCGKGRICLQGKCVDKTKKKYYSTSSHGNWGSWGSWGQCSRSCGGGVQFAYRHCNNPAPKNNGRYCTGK
Description: Ex vivo inhibition of ADAMTS-5-mediated aggrecan degradation in IL-1-stimulated bovine cartilage explant at 30 uM.

In the case of `O=C(NO)C1(S(=O)(=O)c2ccc(Oc3ccc(Cl)cc3)cc2)CCN(Cc2ccccc2)CC1`, the inhibition in test [1] and in test [4] was 91% in each case. Also, the figures for the IC50 in test [2] and in test [3] were 1000 nM and 420 nM, respectively.
